In data set [1] the target is T1, Transient receptor potential cation channel subfamily M member 5 (Homo sapiens, UniProt Q9NZQ8).
T1 sequence (Q9NZQ8 whole entry): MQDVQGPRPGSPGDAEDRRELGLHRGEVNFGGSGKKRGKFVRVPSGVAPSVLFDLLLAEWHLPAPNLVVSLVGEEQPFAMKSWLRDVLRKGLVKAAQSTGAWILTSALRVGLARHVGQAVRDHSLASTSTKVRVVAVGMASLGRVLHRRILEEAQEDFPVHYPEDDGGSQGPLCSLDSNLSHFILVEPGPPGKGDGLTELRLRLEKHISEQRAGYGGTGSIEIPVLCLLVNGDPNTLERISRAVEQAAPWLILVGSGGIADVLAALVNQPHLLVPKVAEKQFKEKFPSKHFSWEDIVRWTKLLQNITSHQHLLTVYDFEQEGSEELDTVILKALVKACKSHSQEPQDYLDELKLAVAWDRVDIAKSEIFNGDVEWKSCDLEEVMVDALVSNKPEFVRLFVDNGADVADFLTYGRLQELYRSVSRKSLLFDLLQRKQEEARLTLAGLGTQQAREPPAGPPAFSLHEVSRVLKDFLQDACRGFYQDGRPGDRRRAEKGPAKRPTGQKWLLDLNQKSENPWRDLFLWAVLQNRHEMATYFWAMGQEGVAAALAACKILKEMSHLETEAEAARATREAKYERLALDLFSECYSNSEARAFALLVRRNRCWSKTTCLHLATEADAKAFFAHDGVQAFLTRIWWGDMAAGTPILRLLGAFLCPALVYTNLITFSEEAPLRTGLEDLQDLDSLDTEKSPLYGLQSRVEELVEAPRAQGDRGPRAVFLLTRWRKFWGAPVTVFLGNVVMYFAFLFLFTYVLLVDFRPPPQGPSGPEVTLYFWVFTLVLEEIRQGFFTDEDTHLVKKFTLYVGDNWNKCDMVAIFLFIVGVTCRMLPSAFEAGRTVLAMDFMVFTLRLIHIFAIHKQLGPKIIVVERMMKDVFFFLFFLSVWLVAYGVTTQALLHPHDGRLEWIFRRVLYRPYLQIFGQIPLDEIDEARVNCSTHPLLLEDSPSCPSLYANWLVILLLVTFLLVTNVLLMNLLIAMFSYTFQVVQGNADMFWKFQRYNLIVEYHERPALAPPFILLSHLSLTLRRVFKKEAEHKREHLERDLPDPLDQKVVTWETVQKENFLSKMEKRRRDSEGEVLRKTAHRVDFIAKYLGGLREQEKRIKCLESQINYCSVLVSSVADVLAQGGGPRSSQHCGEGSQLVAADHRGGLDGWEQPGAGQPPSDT
The data set is described as follows: Agonist activity at human TRPM5 expressed in CHO-K1 cells assessed as increase in relative fluorescence unit measured for 2 mins by FLIPR based membrane potential assay. Type of data set: cell-based.

Data set [2] has as its target T1, Transient receptor potential cation channel subfamily M member 5. The data set is described as follows: Agonist activity at human TRPM5 in HEK293T cells by FLIPR based assay. Type of data set: cell-based.
The target in data set [3] is T2, Transient receptor potential cation channel subfamily M member 5 (Homo sapiens) (UniProt Q9NZQ8).
T2 sequence (whole entry): T1 sequence (Q9NZQ8 whole entry)
The data set is described as follows: Agonist activity at human TRPM5 expressed in human Caco-2 cells assessed as increase in acetylcholine release at 50 uM incubated for 18 hrs by mass spectrometric analysis. Type of data set: cell-based. To be noted: filed as agonist.

Data set [4] has as its target Transient receptor potential cation channel subfamily M member 4 (Homo sapiens, UniProt Q8TD43). The data set is described as follows: Agonist activity at human TRPM4 expressed in CHO-K1 cells assessed as increase in relative fluorescence unit by measuring membrane potential by FLIPR assay. Type of data set: cell-based.
The target in data set [5] is T3, Transient receptor potential cation channel subfamily M member 5 (Mus musculus) (UniProt Q9JJH7).
T3 sequence (whole entry): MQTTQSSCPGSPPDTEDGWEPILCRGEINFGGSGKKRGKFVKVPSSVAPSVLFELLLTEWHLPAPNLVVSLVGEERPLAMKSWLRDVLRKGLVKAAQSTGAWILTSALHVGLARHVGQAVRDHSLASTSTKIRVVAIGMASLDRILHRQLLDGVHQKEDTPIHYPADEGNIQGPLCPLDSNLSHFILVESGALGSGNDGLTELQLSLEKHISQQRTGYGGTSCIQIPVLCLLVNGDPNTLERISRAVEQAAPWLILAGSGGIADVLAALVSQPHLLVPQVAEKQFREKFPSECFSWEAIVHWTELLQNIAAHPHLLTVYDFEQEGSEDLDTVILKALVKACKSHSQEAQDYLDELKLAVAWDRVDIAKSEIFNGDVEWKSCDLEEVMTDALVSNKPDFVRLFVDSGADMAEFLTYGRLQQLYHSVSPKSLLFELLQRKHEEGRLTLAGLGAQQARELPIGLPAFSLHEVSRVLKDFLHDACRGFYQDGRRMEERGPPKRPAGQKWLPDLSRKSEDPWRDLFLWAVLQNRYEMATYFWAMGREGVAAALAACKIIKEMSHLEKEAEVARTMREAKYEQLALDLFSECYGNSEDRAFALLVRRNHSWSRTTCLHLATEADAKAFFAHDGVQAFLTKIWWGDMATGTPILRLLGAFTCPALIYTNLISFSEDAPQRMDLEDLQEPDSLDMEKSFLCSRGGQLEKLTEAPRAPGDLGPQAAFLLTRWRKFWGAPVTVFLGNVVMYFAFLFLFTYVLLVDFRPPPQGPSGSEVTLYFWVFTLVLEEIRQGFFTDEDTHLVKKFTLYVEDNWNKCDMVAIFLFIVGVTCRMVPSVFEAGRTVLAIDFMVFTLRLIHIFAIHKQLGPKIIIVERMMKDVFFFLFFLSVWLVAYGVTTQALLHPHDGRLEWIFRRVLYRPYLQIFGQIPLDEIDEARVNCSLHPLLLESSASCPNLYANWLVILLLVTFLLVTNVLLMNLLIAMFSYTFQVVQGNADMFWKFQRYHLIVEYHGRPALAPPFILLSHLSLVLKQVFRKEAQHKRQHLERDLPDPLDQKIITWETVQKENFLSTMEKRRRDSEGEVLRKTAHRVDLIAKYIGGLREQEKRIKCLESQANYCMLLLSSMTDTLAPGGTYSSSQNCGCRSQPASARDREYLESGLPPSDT
Kind of data set: Binding affinity to mouse colon mucosal epithelium TRPM5 assessed as increase in short circuit current. It is filed as tissue-based. To be noted: Colonic epithelium, filed as agonist.

In data set [6] the test system is Mus musculus. The data set is described as follows: Induction of gastrointestinal motility in CD-1 mouse assessed as increase in fecal weight at 10 to 100 mg/kg, po measured upto 6 hrs. It is filed as functional, organism-based. The following applies: dose 10-100 mg/kg.
For data set [7], the system named is Mus musculus. The data set is described as follows: Induction of gastrointestinal motility in CD-1 mouse assessed as increase in fecal water content at 10 to 100 mg/kg, po measured upto 6 hrs. It is filed as functional, organism-based. The following applies: dose 10-100 mg/kg.
Data set [8] can be described thus: Half-life in Sprague-Dawley rat. Type of data set: ADME. To be noted: in vivo.
The nature of data set [9]: Solubility of the compound in JP1 solution. Type of data set: physicochemical.
Data set [10] in a line: Intrinsic clearance in Sprague-Dawley rat. It is filed as ADME.
Data set [11] can be described thus: Metabolic stability in human liver microsomes assessed as intrinsic clearance. Type of data set: ADME, Microsome. The following applies: read-out: CLH.
The nature of data set [12]: Metabolic stability in human liver microsomes assessed as half life. It is filed as ADME, Microsome. To be noted: liver microsomes.
The target in data set [13] is T1, Transient receptor potential cation channel subfamily M member 5. The data set is described as follows: Agonist activity at TRPM5 (unknown origin).
Data set [14] is described as follows: Solubility of the compound in JP2 solution. It is filed as physicochemical.
Data set [15] deals with T1, Transient receptor potential cation channel subfamily M member 5. Kind of data set: Agonist activity at human TRPM5 expressed in HEK cells by whole cell electrophysiology method. It is filed as cell-based.

In brackets after ≈: the same amount, converted by molar mass. Activity calls are given as the source filed them. No cut-off for these calls is given here. Where only a bound is given, the exact number is not on record here.

As a reminder, the EC50 is the midpoint of the concentration-response curve. For orientation: half-life means the time in which the quantity being followed falls by half. What is called solubility is the dissolved amount per volume that the medium holds. Low values mean little dissolved substance, high ones much dissolved substance.

Sequence of Transient receptor potential cation channel subfamily M member 4 (Q8TD43 whole entry): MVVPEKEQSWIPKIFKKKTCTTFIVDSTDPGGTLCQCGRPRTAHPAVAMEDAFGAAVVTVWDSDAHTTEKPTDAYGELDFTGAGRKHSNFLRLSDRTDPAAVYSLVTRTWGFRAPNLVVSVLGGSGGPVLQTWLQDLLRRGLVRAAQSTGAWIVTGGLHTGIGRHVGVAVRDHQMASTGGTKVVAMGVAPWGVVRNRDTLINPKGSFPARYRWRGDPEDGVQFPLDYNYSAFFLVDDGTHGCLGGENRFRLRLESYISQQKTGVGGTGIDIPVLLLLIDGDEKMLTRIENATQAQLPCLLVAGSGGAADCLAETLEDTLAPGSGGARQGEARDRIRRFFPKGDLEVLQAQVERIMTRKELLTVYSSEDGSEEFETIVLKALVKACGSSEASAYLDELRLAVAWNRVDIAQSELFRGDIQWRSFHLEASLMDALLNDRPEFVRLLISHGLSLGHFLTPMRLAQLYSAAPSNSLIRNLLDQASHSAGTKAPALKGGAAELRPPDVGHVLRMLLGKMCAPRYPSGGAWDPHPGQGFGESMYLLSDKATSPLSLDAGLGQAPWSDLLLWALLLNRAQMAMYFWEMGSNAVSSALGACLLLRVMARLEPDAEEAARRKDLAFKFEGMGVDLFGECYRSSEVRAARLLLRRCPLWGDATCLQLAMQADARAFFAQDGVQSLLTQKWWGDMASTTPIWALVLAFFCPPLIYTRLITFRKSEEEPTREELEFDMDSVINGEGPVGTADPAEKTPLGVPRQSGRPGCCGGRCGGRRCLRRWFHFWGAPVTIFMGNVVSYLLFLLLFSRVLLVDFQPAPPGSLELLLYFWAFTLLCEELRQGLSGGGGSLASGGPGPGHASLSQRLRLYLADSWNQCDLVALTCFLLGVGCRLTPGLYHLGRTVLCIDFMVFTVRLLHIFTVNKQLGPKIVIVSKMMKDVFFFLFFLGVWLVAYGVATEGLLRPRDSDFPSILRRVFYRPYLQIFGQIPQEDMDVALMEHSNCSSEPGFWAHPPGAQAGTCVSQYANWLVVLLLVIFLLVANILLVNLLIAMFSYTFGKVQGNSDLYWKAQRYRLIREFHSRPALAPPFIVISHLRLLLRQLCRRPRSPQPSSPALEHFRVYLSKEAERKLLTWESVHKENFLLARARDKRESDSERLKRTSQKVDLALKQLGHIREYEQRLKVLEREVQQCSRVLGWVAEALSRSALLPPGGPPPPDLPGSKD

Take `Cc1ccc2c(c1)C[C@@H](CO)N[C@H]2c1ccccc1`: in data set [1], the EC50 was 10000 nM.

Turning to `C=CC(C)(C)c1cc2cc3c(cc2oc1=O)O[C@H](C(C)(C)OC(C)=O)C3`, it took 27000 nM to reach a half-maximal effect in data set [2] (EC50).

Regarding `OC[C@@H]1Cc2ccc(Cl)cc2[C@H](c2cccnc2)N1`, the EC50 in [1] was 20000 nM.

On to `Clc1cnc(CNc2cc3sncc3cc2Cl)s1`, for which the outcome in data set [3] was Active.

In the case of `CN1[C@H](CO)Cc2ccc(Cl)cc2[C@@H]1c1ccccc1`, in [1], the 50% effective concentration (EC50) was more than 31600 nM.

Consider `OC[C@@H]1Cc2cc(Cl)c(F)cc2[C@H](c2ccccc2)N1`, for which the 50% effective concentration (EC50) in [1] was 316 nM.

With `OC[C@@H]1Cc2cc(Cl)cnc2[C@H](c2cc(F)cc(Cl)c2)N1`, the EC50 in data set [1] is 3160 nM.

Consider `OC[C@@H]1Cc2cc(Cl)ccc2[C@H](c2ccccc2Cl)N1`, for which the concentration giving a half-maximal response (EC50) in data set [1] was 1580 nM.

As for `Cc1ccc2c(c1)[C@H](c1ccccc1)N[C@H](CO)C2`, in data set [1], the half-maximal effective concentration (EC50) is 10000 nM.

As to `OC[C@@H]1Cc2cc(Cl)ccc2[C@H](c2cc(F)cc(Cl)c2)N1`, the EC50 in data set [1] was 63.1 nM.

`Cc1ccccc1[C@@H]1N[C@H](CO)Cc2ccc(Cl)cc21`: the EC50 in data set [1] was more than 31600 nM.

`Cc1cc([C@@H]2N[C@H](CO)Cc3ccc(Cl)cc32)ccc1Cl`: the half-maximal effective concentration (EC50) in [1] was 1000 nM; in [4] it was 25700 nM.

As to `N#Cc1ccc2c(c1)C[C@@H](CO)N[C@H]2c1cc(F)cc(Cl)c1`, the half-maximal effective concentration (EC50) in data set [1] is 20000 nM.

As to `OC[C@@H]1Cc2ccc(Cl)cc2[C@H](c2cc(F)cc(F)c2)N1`, the half-maximal effective concentration (EC50) in [1] is 200 nM; in data set [4], 589 nM.

Regarding `OC[C@@H]1Cc2ccc(Cl)cc2[C@H](c2cccc(F)c2)N1`, the EC50 in data set [1] was 316 nM; in data set [4], 1700 nM.

Consider `OC[C@@H]1Cc2ccc(Cl)cc2[C@H](c2ccccc2)N1` (racemic), for which the results for the EC50 in data set [1] and in data set [4] were 794 nM and 24500 nM, respectively.

`N#Cc1ccc2c(c1)C[C@H](CO)N[C@@H]2c1cc(F)cc(Cl)c1`: the result (in [5]; in data set [3]; in the data set on Mus musculus [6]; in the data set with Mus musculus [7]) was Active.

Regarding `C=CCNC(=S)/N=c1/sc2ccccc2n1C`, the half-life in data set [8] stood at 2.6 min; in data set [12], 4.1 min. The solubility amounted to 1.7 µM (≈ 0.448 µg/mL) in data set [9] and 0.9 µM (≈ 0.237 µg/mL) in [14]. Also, the CLint scaled came to 540 mL/min/kg in data set [10] and 338 mL/min/kg in [11]. The half-maximal effective concentration (EC50) in data set [1] was 631 nM; in data set [13], 10000 nM; in data set [15] it was 9400 nM.

Regarding `OC[C@@H]1Cc2cccc(Cl)c2[C@H](c2ccccc2)N1`, the concentration giving a half-maximal response (EC50) in data set [1] is more than 31600 nM.

In the case of `OCc1cc2ccc(Cl)cc2c(-c2ccccc2)n1`, the EC50 in data set [1] is more than 31600 nM.

`OC[C@@H]1Cc2cc(Cl)ccc2[C@H](c2ccccc2)N1`: the EC50 in data set [1] is 501 nM; in data set [4] it was 26300 nM.

Consider `N#Cc1cc(F)cc([C@@H]2N[C@H](CO)Cc3cc(Cl)ccc32)c1`, for which the EC50 in [1] was 251 nM.

For the compound `OC[C@@H]1Cc2ccc(Cl)cc2[C@H](c2ccccn2)N1`, the EC50 in [1] was 7940 nM.

For `OC[C@@H]1Cc2ccc(Cl)cc2[C@H](c2ccncc2)N1`, the concentration giving a half-maximal response (EC50) in data set [1] was more than 31600 nM.

Turning to `OC[C@@H]1Cc2c(Cl)cccc2[C@H](c2ccccc2)N1`, the EC50 in data set [1] was 1260 nM.

Regarding `Cc1ccc([C@@H]2N[C@H](CO)Cc3ccc(Cl)cc32)cc1`, the EC50 in [1] was 6310 nM.

For the compound `COC[C@@H]1Cc2ccc(Cl)cc2[C@H](c2ccccc2)N1`, in data set [1], the EC50 is 15800 nM.

`OC[C@@H]1Cc2ccc(Cl)cc2[C@H](c2cc(Cl)cc(Cl)c2)N1`: the results for the half-maximal effective concentration (EC50) in data set [1] and in data set [4] were 200 nM and 8910 nM, respectively.

With `OC[C@H]1Cc2ccc(Cl)cc2[C@H](c2ccccc2)N1`, the half-maximal effective concentration (EC50) in [1] is more than 31600 nM.

Consider `OC[C@@H]1Cc2ccc(Cl)cc2[C@H](c2cc(F)cc(Cl)c2)N1`, for which the half-maximal effective concentration (EC50) in data set [1] is 100 nM; in data set [4], 1350 nM.

`OC[C@@H]1Cc2cc(Cl)c(Cl)cc2[C@H](c2ccccc2)N1`: the EC50 in [1] is 50.1 nM.

`N#Cc1ccc2c(c1)[C@H](c1cc(F)cc(Cl)c1)N[C@H](CO)C2`: in data set [1], the concentration for a half-maximal effect (EC50) is 7940 nM.

As for `OC[C@@H]1Cc2ccc(Cl)cc2[C@@H](c2ccccc2)N1` (racemic), the 50% effective concentration (EC50) in data set [1] was more than 31600 nM.

With `OC[C@@H]1Cc2ccccc2[C@H](c2ccccc2)N1`, the half-maximal effective concentration (EC50) in data set [1] is more than 31600 nM.

For the compound `OC[C@@H]1Cc2ccc(Cl)cc2[C@H](c2cccc(Cl)c2)N1`, the results for the EC50 in data set [1] and in data set [4] were 501 nM and 1820 nM, respectively.

As to `OC[C@@H]1Cc2cc(Cl)ncc2[C@H](c2cc(F)cc(Cl)c2)N1`, in [1], the EC50 is 2000 nM.
